Reference: ChEMBL document CHEMBL6074674, “Development of Novel Silicon-Based Hydrophobic Tags (SiHyT) for Targeted Proteins Degradation” (J Med Chem, 2024)
The source made the active and inactive calls. The rule behind the calls is not given here.

Tests used:
[1] = test system: E3 ubiquitin-protein ligase RNF149/Epidermal growth factor receptor (Homo sapiens), P00533+Q8NC42 [UNDEFINED MUTATION]; assay: SiHyT-mediated degrader activity at RNF149/EGFR mutant in human HCC827 cels assessed as induction of EGFR degradation at 0.1 uM cells incubated in serum-free media for 8 hrs followed by incubation with compound for 24 hrs by western blot analysis; assay type: cell-based
Chain of E3 ubiquitin-protein ligase RNF149/Epidermal growth factor receptor (Homo sapiens), P00533+Q8NC42 [UNDEFINED MUTATION] (P00533 whole entry, looked up, stated change not applied): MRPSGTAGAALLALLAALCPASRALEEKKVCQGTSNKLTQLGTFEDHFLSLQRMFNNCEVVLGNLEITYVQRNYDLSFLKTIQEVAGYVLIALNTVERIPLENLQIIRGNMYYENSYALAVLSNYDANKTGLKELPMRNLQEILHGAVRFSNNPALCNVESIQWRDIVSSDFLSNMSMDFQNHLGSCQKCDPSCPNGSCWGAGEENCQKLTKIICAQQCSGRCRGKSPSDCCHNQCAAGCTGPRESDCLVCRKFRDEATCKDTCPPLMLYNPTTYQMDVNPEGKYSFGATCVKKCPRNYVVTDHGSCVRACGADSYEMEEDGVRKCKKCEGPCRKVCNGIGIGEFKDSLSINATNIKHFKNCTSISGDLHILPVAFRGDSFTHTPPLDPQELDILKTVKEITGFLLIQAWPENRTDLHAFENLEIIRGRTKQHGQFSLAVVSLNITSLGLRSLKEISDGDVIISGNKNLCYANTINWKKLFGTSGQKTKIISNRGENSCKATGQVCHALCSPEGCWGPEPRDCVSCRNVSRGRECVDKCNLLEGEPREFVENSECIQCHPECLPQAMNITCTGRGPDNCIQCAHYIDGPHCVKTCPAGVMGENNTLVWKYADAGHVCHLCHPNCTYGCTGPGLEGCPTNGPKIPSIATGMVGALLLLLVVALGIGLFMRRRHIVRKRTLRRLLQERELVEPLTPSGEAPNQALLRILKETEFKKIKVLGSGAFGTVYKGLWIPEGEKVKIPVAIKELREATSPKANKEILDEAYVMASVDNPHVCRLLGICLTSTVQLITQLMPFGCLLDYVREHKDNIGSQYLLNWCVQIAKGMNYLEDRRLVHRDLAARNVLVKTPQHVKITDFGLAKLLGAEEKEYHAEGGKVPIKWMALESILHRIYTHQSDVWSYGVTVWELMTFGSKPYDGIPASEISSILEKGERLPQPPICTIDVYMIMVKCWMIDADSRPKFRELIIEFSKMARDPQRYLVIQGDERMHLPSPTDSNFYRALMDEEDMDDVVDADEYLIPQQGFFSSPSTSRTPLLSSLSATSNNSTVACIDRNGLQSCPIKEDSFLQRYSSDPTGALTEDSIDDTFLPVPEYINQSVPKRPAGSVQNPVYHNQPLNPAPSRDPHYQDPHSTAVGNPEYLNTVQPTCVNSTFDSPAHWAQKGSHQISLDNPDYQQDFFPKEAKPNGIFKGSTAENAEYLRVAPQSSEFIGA
Chain of E3 ubiquitin-protein ligase RNF149/Epidermal growth factor receptor (Homo sapiens), P00533+Q8NC42 [UNDEFINED MUTATION] (Q8NC42 whole entry, looked up, stated change not applied): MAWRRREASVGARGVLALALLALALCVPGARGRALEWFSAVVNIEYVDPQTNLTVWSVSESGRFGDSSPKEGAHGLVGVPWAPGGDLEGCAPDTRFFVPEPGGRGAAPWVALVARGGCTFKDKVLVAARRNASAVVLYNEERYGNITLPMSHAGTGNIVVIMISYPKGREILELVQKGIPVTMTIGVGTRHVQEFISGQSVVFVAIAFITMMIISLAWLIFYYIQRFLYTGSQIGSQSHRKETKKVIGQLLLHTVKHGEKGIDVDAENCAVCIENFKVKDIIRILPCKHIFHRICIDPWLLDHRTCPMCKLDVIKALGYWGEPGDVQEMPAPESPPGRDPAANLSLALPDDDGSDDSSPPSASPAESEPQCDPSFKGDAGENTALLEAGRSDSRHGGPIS

HCC827 [2] = assay: Antiproliferative activity against human HCC827 cells assessed as decrease in cell survival measured after 72 hrs by CCK-8 assay; assay type: functional, cell-based; settings: HCC827, 72 h
[3] = test system: E3 ubiquitin-protein ligase RNF149/Epidermal growth factor receptor (Homo sapiens), P00533+Q8NC42 [UNDEFINED MUTATION]; assay: SiHyT-mediated degrader activity at RNF149/EGFR mutant in human HCC827 cells assessed as induction of EGFR degradation at 1 uM cells incubated in serum-free media for 8 hrs followed by incubation with compound for 24 hrs by western blot analysis; assay type: cell-based
[4] = Intrinsic clearance of the compound in mouse liver microsomes at 1 uM in presence of NADPH by LC-MS/MS analysis; assay type: ADME, Microsome; settings: read-out: CLH
[5] = Half life of the compound in mouse liver microsomes at 1 uM in presence of NADPH by LC-MS/MS analysis; assay type: ADME, Microsome
[6] = Half life of the compound in human liver microsomes at 1 uM in presence of NADPH by LC-MS/MS analysis; assay type: ADME, Microsome
[7] = Intrinsic clearance of the compound in human liver microsomes at 1 uM in presence of NADPH by LC-MS/MS analysis; assay type: ADME, Microsome; settings: read-out: CLH
Kasumi 1 [8] = assay: SiHyT-mediated degrader activity at RNF149/PDL1 in human Kasumi 1 cells assessed as induction of PDL1 degradation at 1 uM pretreated with proteasome inhibitor, MG-132 for 4 hrs followed by incubation with compound for 24 hrs by western blot analysis; assay type: cell-based
Kasumi 1 [9] = assay: SiHyT-mediated degrader activity at RNF149/PDL1 in human Kasumi 1 cells assessed as induction of PDL1 degradation at 1 uM pretreated with E1 ligase inhibitor, PYR-41 for 4 hrs followed by incubation with compound for 24 hrs by western blot analysis; assay type: cell-based
Kasumi 1 [10] = assay: SiHyT-mediated degrader activity at RNF149/PDL1 in human Kasumi 1 cells assessed as increase in PDL1 degradation by measuring decrease in PDL1 expression incubated for 12 hrs by proteomics analysis; assay type: cell-based
[11] = (§1) SiHyT-mediated degrader activity at RNF149/PDL1 in human Kasumi 1 cells assessed as induction of PDL1 degradation incubated for 24 hrs by western blot analysis; assay type: cell-based; settings: Kasumi 1, 24 h
Kasumi 1 [12] = assay: as §1; assay type: cell-based
Kasumi 1 [13] = assay: SiHyT-mediated degrader activity at RNF149/PDL1 in human Kasumi 1 cells assessed as induction of PDL1 degradation at 1 uM incubated for 3 to 24 hrs by western blot analysis; assay type: cell-based; settings: time 3-24 hrs
Kasumi 1 [14] = assay: SiHyT-mediated degrader activity at RNF149/PDL1 in human Kasumi 1 cells assessed as reduction in half life of PDL1 at 1 uM incubated for 6 to 24 hrs in presence of protein synthesis inhibitor, CHX by western blot analysis; assay type: cell-based; settings: time 6-24 hrs
Kasumi 1 [15] = assay: SiHyT-mediated degrader activity at RNF149/PDL1 in human Kasumi 1 cells assessed as increase in PDL1 ubiquitination pretreated with MG132 followed by incubation with compound for 9 hrs by immunoprecipitation based western blot analysis; assay type: cell-based
[16] = (§2) SiHyT-mediated degrader activity at RNF149/BTK in human MOLM-13 cells assessed as induction of BTK degradation incubated for 24 hrs by western blot analysis; assay type: cell-based; settings: MOLM-13, 24 h
MOLM-13 [17] = assay: as §2; assay type: cell-based
MOLM-13 [18] = assay: SiHyT-mediated degrader activity at RNF149/BTK in human MOLM-13 cells assessed as increase in BTK ubiquitination pretreated with MG132 followed by incubation with compound for 9 hrs by immunoprecipitation based western blot analysis; assay type: cell-based
MOLM-13 [19] = assay: SiHyT-mediated degrader activity at RNF149/BTK in human MOLM-13 cells assessed as induction of BTK degradation at 2.5 uM incubated for 3 to 24 hrs by western blot analysis; assay type: cell-based; settings: time 3-24 hrs
MOLM-13 [20] = assay: SiHyT-mediated degrader activity at RNF149/BTK in human MOLM-13 cells assessed as reduction in half life of BTK at 2.5 uM incubated for 6 to 24 hrs in presence of protein synthesis inhibitor, CHX by western blot analysis; assay type: cell-based; settings: time 6-24 hrs
MOLM-13 [21] = assay: SiHyT-mediated degrader activity at RNF149/BTK in human MOLM-13 cells assessed as induction of BTK degradation at 2.5 uM pretreated with E1 ligase inhibitor, PYR-41 for 4 hrs followed by incubation with compound for 24 hrs by western blot analysis; assay type: cell-based
MOLM-13 [22] = assay: SiHyT-mediated degrader activity at RNF149/BTK in human MOLM-13 cells assessed as induction of BTK degradation at 2.5 uM pretreated with proteasome inhibitor, MG-132 for 4 hrs followed by incubation with compound for 24 hrs by western blot analysis; assay type: cell-based
MOLM-13 [23] = assay: SiHyT-mediated degrader activity at RNF149/BTK in human MOLM-13 cells assessed as increase in BTK degradation by measuring decrease in BTK expression incubated for 12 hrs by proteomics analysis; assay type: cell-based
PC-9 [24] = assay: Induction of cell cycle arrest in human PC-9 cells assessed as increase in cell accumulation at G1 phase at 0.01 to 0.1 uM incubated for 24 hrs by propidium iodide staining based flow cytometry; assay type: functional; settings: dose 0.01-0.1 µM
PC-9 [25] = assay: Antiproliferative activity against human PC-9 cells assessed as decrease in cell survival measured after 72 hrs by CCK-8 assay; assay type: functional, cell-based; settings: PC-9, 72 h
HCC827 [26] = assay: Induction of cell cycle arrest in human HCC827 cells assessed as increase in cell accumulation at G1 phase at 0.01 to 0.1 uM incubated for 24 hrs by propidium iodide staining based flow cytometry; assay type: functional; settings: dose 0.01-0.1 µM

SMILES	Activity [1]	IC50 (HCC827 [2])	Activity [3]	further results
COc1cc2ncnc(Nc3ccc(F)c(Cl)c3)c2cc1OCCn1cc(CCO[Si](c2ccccc2)(c2ccccc2)C(C)(C)C)nn1	46.4%	140 nM	72.1%	
COc1cc2ncnc(Nc3ccc(F)c(Cl)c3)c2cc1OCCn1cc(CCCO[Si](C)(C)C(C)(C)C)nn1	19.7%	5620 nM	22.4%	
COc1cc2ncnc(Nc3ccc(F)c(Cl)c3)c2cc1OCCn1cc(CCCNC(=O)CO[C@@H]2C[C@H](C)CC[C@H]2C(C)C)nn1				CLint scaled at 1 µM [4]: 741 mL/min/kg; half-life at 1 µM [5]: 7.4 min; half-life at 1 µM [6]: 4.22 min; CLint scaled at 1 µM [7]: 295 mL/min/kg
COc1cc(OCc2cccc(-c3ccccc3)c2C)cc(OC)c1CNCc1cn(CCO[Si](c2ccccc2)(c2ccccc2)C(C)(C)C)nn1				Activity (Kasumi 1 [8]): inactive; Activity (Kasumi 1 [9]): inactive; Activity (Kasumi 1 [10]): Active; DC50 [11]: 510 nM; Activity (Kasumi 1 [12]): Active; Activity (Kasumi 1 [13]): Time-dependent-effect; Activity (Kasumi 1 [14]): Active; Activity (Kasumi 1 [15]): Active
COc1cc2ncnc(Nc3ccc(F)c(Cl)c3)c2cc1OCCn1cc(CCCCO[Si](C)(C)C2CCCCC2)nn1	46.1%	700 nM	53.2%	
COc1cc2ncnc(Nc3ccc(F)c(Cl)c3)c2cc1OCCOCCOCCO[Si](c1ccccc1)(c1ccccc1)C(C)(C)C	0%	> 10000 nM	20.1%	
COc1cc2ncnc(Nc3ccc(F)c(Cl)c3)c2cc1OCCCN1CCN(CCn2cc(CCCO[Si](c3ccccc3)(c3ccccc3)C(C)(C)C)nn2)CC1	0%	1580 nM	10.8%	
COc1cc2ncnc(Nc3ccc(F)c(Cl)c3)c2cc1OCCn1cc(CCO[Si](C)(C)C2CCCCC2)nn1	12.7%	450 nM	47%	
O=C(O)Cc1ccccc1Nc1c(Cl)cccc1Cl [DICLOFENAC]				CLint scaled at 1 µM [4]: 109 mL/min/kg; half-life at 1 µM [5]: 50.2 min; half-life at 1 µM [6]: 6.96 min; CLint scaled at 1 µM [7]: 179 mL/min/kg
COc1cc2ncnc(Nc3ccc(F)c(Cl)c3)c2cc1OCCn1cc(CCCO[Si](C(C)C)(C(C)C)C(C)C)nn1	4.2%	7460 nM	18.2%	
COc1cc2ncnc(Nc3ccc(F)c(Cl)c3)c2cc1OCCCN1CCN(CCn2cc(CCCCO[Si](c3ccccc3)(c3ccccc3)C(C)(C)C)nn2)CC1	0%	3040 nM	0%	
CC(C)(C)[Si](OCCn1cc(CCC(=O)N2CCC[C@@H](n3nc(-c4ccc(Oc5ccccc5)cc4)c4c(N)ncnc43)C2)nn1)(c1ccccc1)c1ccccc1				DC50 [16]: 2780 nM; Activity (MOLM-13 [17]): Active; Activity (MOLM-13 [18]): Active; Activity (MOLM-13 [19]): Time-dependent-effect; Activity (MOLM-13 [20]): Active; Activity (MOLM-13 [21]): inactive; Activity (MOLM-13 [22]): inactive; Activity (MOLM-13 [23]): Active
COc1cc2ncnc(Nc3ccc(F)c(Cl)c3)c2cc1OCCn1cc(CCCC(=O)NCC2CC3C=CC2C3)nn1 (configuration not stated)				CLint scaled at 1 µM [4]: 614 mL/min/kg; half-life at 1 µM [5]: 8.94 min; half-life at 1 µM [6]: 9.48 min; CLint scaled at 1 µM [7]: 132 mL/min/kg
COc1cc2ncnc(Nc3ccc(F)c(Cl)c3)c2cc1OCCCCCCCO[Si](c1ccccc1)(c1ccccc1)C(C)(C)C	0%	> 10000 nM	0%	
COc1cc2ncnc(Nc3ccc(F)c(Cl)c3)c2cc1OCCOCCO[Si](c1ccccc1)(c1ccccc1)C(C)(C)C	0%	> 10000 nM	0%	
COc1cc2ncnc(Nc3ccc(F)c(Cl)c3)c2cc1OCCn1cc(CCCO[Si](C)(C)C2CCCCC2)nn1	52.3%	150 nM	55.3%	
COc1cc2ncnc(Nc3ccc(F)c(Cl)c3)c2cc1OCCn1cc(CCCCO[Si](c2ccccc2)(c2ccccc2)C(C)(C)C)nn1	28%	110 nM	58.4%	
COc1cc2ncnc(Nc3ccc(F)c(Cl)c3)c2cc1OCCCN1CCOCC1 [GEFITINIB]				Activity (PC-9 [24]): Dose-dependent-effect; IC50 (PC-9 [25]): 13 nM; Activity (HCC827 [26]): Dose-dependent-effect
CC[Si](CC)(CC)OCCCc1cn(CCOc2cc3c(Nc4ccc(F)c(Cl)c4)ncnc3cc2OC)nn1	38.2%	330 nM	79.1%	
COc1cc2ncnc(Nc3ccc(F)c(Cl)c3)c2cc1OCCCN1CCN(CCn2cc(CCCCO[Si](C)(C)C3CCCCC3)nn2)CC1	0%	> 10000 nM	18.4%	
COc1cc2ncnc(Nc3ccc(F)c(Cl)c3)c2cc1OCCCN1CCN(CCn2cc(CCCO[Si](C)(C)C3CCCCC3)nn2)CC1	0%	> 10000 nM	13.7%	
COc1cc2ncnc(Nc3ccc(F)c(Cl)c3)c2cc1OCCCN1CCN(CCCO[Si](c2ccccc2)(c2ccccc2)C(C)(C)C)CC1	0%	> 10000 nM	0%	
COc1cc2ncnc(Nc3ccc(F)c(Cl)c3)c2cc1OCCCN1CCN(CCO[Si](c2ccccc2)(c2ccccc2)C(C)(C)C)CC1	0%	> 10000 nM	16.8%	
COc1cc2ncnc(Nc3ccc(F)c(Cl)c3)c2cc1OCCCCCCCCO[Si](c1ccccc1)(c1ccccc1)C(C)(C)C	0%	> 10000 nM	0%	
COc1cc2ncnc(Nc3ccc(F)c(Cl)c3)c2cc1OCCn1cc(CCCNC(=O)CC23CC4CC(CC(C4)C2)C3)nn1				CLint scaled at 1 µM [4]: 5230 mL/min/kg; half-life at 1 µM [5]: 1.05 min; half-life at 1 µM [6]: 1.81 min; CLint scaled at 1 µM [7]: 690 mL/min/kg
COc1cc2ncnc(Nc3ccc(F)c(Cl)c3)c2cc1OCCCN1CCN(CCn2cc(CCO[Si](c3ccccc3)(c3ccccc3)C(C)(C)C)nn2)CC1	0%	990 nM	58%	
